The supplement of paper PMC13380429

How the values were obtained:
Conditions in all cases: 72 h
HepG2 [1] = test: drug sensitivity score (DSS) for viability; higher = more toxic; extreme values may be limits of the assay
Vero E6 [2] = test: as above
U2OS [3] = test: as above
Calu-3 [4] = test: as above
Caco-2 [5] = test: as above
HepG2 [6] = test: relative viability EC50 (midpoint between 100% and the lowest measured viability); higher = less toxic
Vero E6 [7] = test: as above
U2OS [8] = test: as above
HepG2 [9] = test: cell viability relative to DMSO; higher = less toxic
Vero E6 [10] = test: as above
U2OS [11] = test: as above
Calu-3 [12] = test: as above
Caco-2 [13] = test: as above
Calu-3 [14] = test: relative viability EC50 (midpoint between 100% and the lowest measured viability); higher = less toxic
Caco-2 [15] = test: as above

Compound | drug sensitivity score (HepG2 [1]) | drug sensitivity score (Vero E6 [2]) | drug sensitivity score (U2OS [3]) | drug sensitivity score (Calu-3 [4]) | drug sensitivity score (Caco-2 [5]) | relative viability EC50 (HepG2 [6]) | relative viability EC50 (Vero E6 [7]) | relative viability EC50 (U2OS [8]) | cell viability (HepG2 [9]; 1 nM) | cell viability (HepG2 [9]; 10 nM) | cell viability (HepG2 [9]; 100 nM) | cell viability (HepG2 [9]; 1000 nM) | cell viability (HepG2 [9]; 10000 nM) | cell viability (Vero E6 [10]; 1 nM) | cell viability (Vero E6 [10]; 10 nM) | cell viability (Vero E6 [10]; 100 nM) | cell viability (Vero E6 [10]; 1000 nM) | cell viability (Vero E6 [10]; 10000 nM) | cell viability (U2OS [11]; 1 nM) | cell viability (U2OS [11]; 10 nM) | cell viability (U2OS [11]; 100 nM) | cell viability (U2OS [11]; 1000 nM) | cell viability (U2OS [11]; 10000 nM) | cell viability (Calu-3 [12]; 1 nM) | cell viability (Calu-3 [12]; 10 nM) | cell viability (Calu-3 [12]; 100 nM) | cell viability (Calu-3 [12]; 1000 nM) | cell viability (Calu-3 [12]; 10000 nM) | cell viability (Caco-2 [13]; 1 nM) | cell viability (Caco-2 [13]; 10 nM) | cell viability (Caco-2 [13]; 100 nM) | cell viability (Caco-2 [13]; 1000 nM) | cell viability (Caco-2 [13]; 10000 nM) | relative viability EC50 (Calu-3 [14]) | relative viability EC50 (Caco-2 [15])
CN1c2ccccc2C(=O)N2CCc3c([nH]c4ccccc34)C21 (stereo in doubt) [evodiamine] | 9.9 | 6.7 | 5.5 | 3.8 | 5.2 | 0.508 µM | 1.27 µM | 1.44 µM | 91.3% | 94.5% | 98.6% | 47.3% | 36.3% | 89.9% | 100% | 95.8% | 74.1% | 33.7% | 94.7% | 93.7% | 99.7% | 83.6% | 43% | 96.8% | 89.9% | 96.7% | 80.6% | 62.4% | 101% | 99.6% | 104% | 76.1% | 55.7% |  | 
C[C@H]1[C@@H](O)O[C@@H]2O[C@@]3(C)CC[C@H]4[C@H](C)CC[C@@H]1[C@@]24OO3 [ARTENIMOL] | 1.6 | 0 | 6.3 | 0 | 1.7 |  | > 10 µM | 1.57 µM | 106% | 100% | 96.4% | 97.2% | 71.8% | 115% | 99.1% | 101% | 103% | 95.9% | 96.5% | 104% | 92.4% | 82.4% | 31.8% | 93.8% | 94.8% | 97.5% | 101% | 98.6% | 100% | 102% | 100% | 88.9% | 79.8% | > 10 µM | > 10 µM
Cn1cc(CCn2cnc(-c3cnn(C)c3)c2-c2ccc(C#N)cc2)cn1 [BAZ2-ICR] | 0 | 0 | 0 | 0 | 0 | > 10 µM | > 10 µM |  |  |  |  |  |  |  |  |  |  |  |  |  |  |  |  |  |  |  |  |  |  |  |  |  |  | > 10 µM | > 10 µM
Cc1ccccc1C(=O)c1ccc(Nc2ccc(Br)cc2N)cc1Cl [EO-1428] | 0 | 0.7 | 0.7 | 0 | 2.4 | > 10 µM | > 10 µM | > 10 µM | 97% | 96% | 98.3% | 85.6% | 108% | 96.7% | 101% | 93.4% | 80.7% | 92.2% | 98.5% | 101% | 96.1% | 96.2% | 82.8% | 93% | 96.6% | 83.4% | 90.8% | 89.5% | 103% | 95.5% | 92.3% | 85.7% | 74% | > 10 µM | 
COc1ccc(-c2csc(NC(=O)[C@H]3CCCCN3S(=O)(=O)c3ccc(C)cc3)n2)cc1 [ML277] | 1.9 | 0 | 0 | 0 | 2.6 |  | > 10 µM | > 10 µM | 97.7% | 99.7% | 112% | 101% | 60.1% | 109% | 102% | 105% | 105% | 99.9% | 98.4% | 98.1% | 101% | 94.2% | 90.1% | 91% | 104% | 92.1% | 92.6% | 99.2% | 89.5% | 93.2% | 97.8% | 90.6% | 69.2% | > 10 µM | 
Nc1nccc(-c2ccc3noc(-c4ccc(Cl)cc4)c3c2)n1 [PIM-1-Inhibitor-2] | 3.4 | 0 | 0 | 0 | 0 |  | > 10 µM | > 10 µM | 96.8% | 94.2% | 92.6% | 92.7% | 57.7% | 97.7% | 103% | 104% | 98.5% | 99.7% | 98.3% | 104% | 93.2% | 99.6% | 93.6% | 100% | 91.4% | 99% | 97% | 88.8% | 98% | 97% | 91.9% | 102% | 98.2% | > 10 µM | > 10 µM
N#CSc1cc(SC#N)c(N)nc1N [PR-619] | 1.9 | 0.8 | 0 | 0 | 0 |  | > 10 µM | > 10 µM | 104% | 120% | 108% | 107% | 55.4% | 92.3% | 104% | 103% | 99.6% | 77.3% | 101% | 96.4% | 99% | 94.1% | 90.6% | 109% | 94.5% | 93.9% | 107% | 94.8% | 93% | 91.5% | 93.6% | 92.2% | 85.4% | > 10 µM | > 10 µM
FC(F)c1nc2ccccc2n1-c1nc(N2CCOCC2)nc(N2CCOCC2)n1 [ZSTK-474] | 6.9 | 6.8 | 2.7 | 5.6 | 7.9 | 1.25 µM | 0.768 µM |  | 105% | 106% | 98.5% | 75.6% | 34.3% | 95.2% | 101% | 90.3% | 69.8% | 42.4% | 96% | 97.4% | 98.1% | 95.6% | 60% | 101% | 102% | 95.3% | 84% | 40.6% | 102% | 99.2% | 97.9% | 68.2% | 27.1% | 1.51 µM | 1.14 µM
